Literature values in patent US20140221490A1, “METHODS OF TREATING PAIN” (Hospira, Inc., priority 2011, published 2014).
Read-outs that look alike come from different tables or passages of the source.

Conditions: cited from earlier work; for K1:1, stability constant of 1:1 inclusion complex with HPβCD: literature reference; for Prot. bind., drug fraction bound to protein (fP): plasma; for Cmax: read-out: Cmax, maximum drug concentration in plasma, based on the drug's pharmacokinetics and administration of a normal drug dose

SMILES	Vd, volume of distribution	K1:1, stability constant of 1:1 inclusion complex with HPβCD	K1:1, stability constant of 1:1 inclusion complex with HPβCD (listed as fenofibrate)	Prot. bind., drug fraction bound to protein (fP)	Cmax	K1:1, stability constant of 1:1 inclusion complex with HPβCD (listed as telmisartan)
CC(C)OC(=O)C(C)(C)Oc1ccc(C(=O)c2ccc(Cl)cc2)cc1 [Fenofibrate]	0.9 L/kg	2^24 M^−1	2 M⁻¹	99%	28000 nM	
CNCCC(Oc1ccc(C(F)(F)F)cc1)c1ccccc1 (stereo not drawn) [Fluoxetine]	27 L/kg			95%	180 nM	
CC(C(=O)O)c1ccc(-c2ccccc2)c(F)c1 (stereo not drawn) [Flurbiprofen]	0.12 L/kg	7,500^26 M^−1		99%	62000 nM	
CCC1=C(C)CN(C(=O)NCCc2ccc(S(=O)(=O)NC(=O)N[C@H]3CC[C@H](C)CC3)cc2)C1=O [Glimepride]				99.5%		
O=C(CCCN1CCC(O)(c2ccc(Cl)cc2)CC1)c1ccc(F)cc1 [Haloperidol]	18 L/kg			92%	88 nM	
CC(C)Cc1ccc(C(C)C(=O)O)cc1 (stereo not drawn) [Ibuprofen]		5,000^31 M^−1			280000 nM	
CC(C(=O)O)c1cccc(C(=O)c2ccccc2)c1 (stereo not drawn) [Ketoprofen]	0.15 L/kg					
CC(=O)O[C@]1(C(C)=O)CC[C@H]2[C@@H]3C[C@H](C)C4=CC(=O)CC[C@]4(C)[C@H]3CC[C@@]21C [Medroxyprogesterone acetate]		260^33 M^−1		90%	1800 nM	
Clc1ccc(COC(Cn2ccnc2)c2ccc(Cl)cc2Cl)c(Cl)c1 (stereo not drawn) [Miconazole]	20 L/kg			92%	29 nM	
Cc1ncc2n1-c1ccc(Cl)cc1C(c1ccccc1F)=NC2 [Midazolam]				97%		
COc1ccc2cc(CCC(C)=O)ccc2c1 [Nabumetone]	0.2 L/kg	3,000^35 M^−1		99%	160000 nM	
COC(=O)C1=C(C)NC(C)=C(C(=O)OCCN(C)Cc2ccccc2)C1c1cccc([N+](=O)[O-])c1 (stereo not drawn) [Nicardipine]	8.3 L/kg				530 nM	
COc1ccc2[nH]c([S+]([O-])Cc3ncc(C)c(OC)c3C)nc2c1 (stereo not drawn) [Omeprazole]	0.35 L/kg	70^38 M^−1		96%	4100 nM	
Cc1nccn1CC1CCc2c(c3ccccc3n2C)C1=O (stereo not drawn) [Ondansetron]	1.7 L/kg	180^39 M^−1		75%	900 nM	
O=C(O)CCc1nc(-c2ccccc2)c(-c2ccccc2)o1 [Oxaprozin]	0.15 L/kg			99%	780000 nM	
COc1ccnc(C[S+]([O-])c2nc3ccc(OC(F)F)cc3[nH]2)c1OC (stereo not drawn) [Pantoprazole]	0.15 L/kg	420^41 M^−1		98%	6500 nM	
C[C@]12C=CC(=O)C=C1CC[C@@H]1[C@@H]2[C@@H](O)C[C@@]2(C)[C@H]1CC[C@]2(O)C(=O)CO [Prednisolone]	1.5 L/kg	2,400^42 M^−1		90%	1300 nM	
CC(C)c1cccc(C(C)C)c1O [Propofol]				99%		
CN[C@H]1CC[C@@H](c2ccc(Cl)c(Cl)c2)c2ccccc21 [Sertaline]				98%		
CCCc1nn(C)c2c(=O)[nH]c(-c3cc(S(=O)(=O)N4CCN(C)CC4)ccc3OCC)nc12 [Sildenafil]	1.5 L/kg			96%	930 nM	
CN1CC(=O)N2[C@H](c3ccc4c(c3)OCO4)c3[nH]c4ccccc4c3C[C@@H]2C1=O [Tadalafil]	0.9 L/kg	360^46 M^−1		94%	1300 nM	
CCCc1nc2c(C)cc(-c3nc4ccccc4n3C)cc2n1Cc1ccc(-c2ccccc2C(=O)O)cc1 [Telmisartan]	7 L/kg	40,000^47 M^−1		99%	2800 nM	40,000 M^−1
